# Assay results as given in ChEMBL document CHEMBL6114949, “Synthesis and physiological effects of new 4-aminophenol derivatives as paracetamol analogues” (Bioorg Med Chem Lett, 2025).
# Calls of active or inactive are those of the source. The calls are words filed in the database; no cut-off is given here.
# Legend:
# Rattus norvegicus [1] = assay: Antipyretic activity against LPS-induced polyphasic febrile response in rats assessed as suppression of rise in core body temperature at 240 mg/kg, po treated 40 mins prior to LPS addition and measured after 10 mins; type: functional, organism-based; settings: time 50.0 min
# Rattus norvegicus [2] = assay: Antipyretic activity against LPS-induced polyphasic febrile response in rats assessed as change in core body temperature at 240 mg/kg, po treated 40 mins prior to LPS addition and measured after 160 mins during phase 1 (reference value: 0.85 deg C); type: functional, organism-based; settings: time 200.0 min
# Rattus norvegicus [3] = assay: Antipyretic activity against LPS-induced polyphasic febrile response in rats assessed as suppression of rise in core body temperature at 240 mg/kg, po treated 40 mins prior to LPS addition and measured after 200 mins; type: functional, organism-based; settings: time 240.0 min
# Rattus norvegicus [4] = assay: Antipyretic activity against LPS-induced polyphasic febrile response in rats assessed as suppression of rise in core body temperature at 240 mg/kg, po treated 40 mins prior to LPS addition and measured after 160 mins relative to control; type: functional; settings: time 200 min, 3.333 h
# Rattus norvegicus [5] = assay: Antinociceptive activity in zymosan-induced rat arthritis model assessed as nociceptive response inhibition at 240 mg/kg, ig administered once daily for 7 days and measured 1 hr post-zymosan challenge on day 7 by Randall-Selitto test (reference value: -34.6%); type: functional; settings: po, 168 h, time 7 day
# Rattus norvegicus [6] = assay: Antinociceptive activity in zymosan-induced rat model of thermal nociceptive hypersensitivity assessed as nociceptive response inhibition at 240 mg/kg, ig administered once daily for 7 days and measured 1 hr post-zymosan challenge on day 7 by hot-plate test (reference value: -42.4%); type: functional; settings: po, 168 h, time 7 day
# [7] = Hepatotoxicity in zymosan-induced rat arthritis model assessed as effect on beam structure of liver at 240 mg/kg, ig administered once daily for 7 days by hematoxylin-eosin staining based histological analysis; type: toxicity, organism-based; settings: in vivo, po, 168 h, time 7 day
# [8] = Hepatotoxicity in zymosan-induced rat arthritis model assessed as effect on general architecture of liver at 240 mg/kg, ig administered once daily for 7 days by hematoxylin-eosin staining based histological analysis; type: toxicity, organism-based; settings: in vivo, po, 168 h, time 7 day
# [9] = Hepatotoxicity in zymosan-induced rat arthritis model assessed as effect on sinusoids elongation at 240 mg/kg, ig administered once daily for 7 days by hematoxylin-eosin staining based histological analysis; type: toxicity, organism-based, Liver; settings: in vivo, po, 168 h, time 7 day
# [10] = Hepatotoxicity in zymosan-induced rat arthritis model assessed as effect on sinusoids arrangement at 240 mg/kg, ig administered once daily for 7 days by hematoxylin-eosin staining based histological analysis; type: toxicity, organism-based, Liver; settings: in vivo, po, 168 h, time 7 day
# [11] = Hepatotoxicity in zymosan-induced rat arthritis model assessed as change in hepatocyte shape at 240 mg/kg, ig administered once daily for 7 days by hematoxylin-eosin staining based histological analysis; type: toxicity, organism-based, Liver; settings: in vivo, po, 168 h, time 7 day
# [12] = Hepatotoxicity in zymosan-induced rat arthritis model assessed as disruption of hepatocyte membrane at 240 mg/kg, ig administered once daily for 7 days by hematoxylin-eosin staining based histological analysis; type: toxicity, organism-based, Liver; settings: in vivo, po, 168 h, time 7 day
# [13] = Hepatotoxicity in zymosan-induced rat arthritis model assessed as change in hepatocyte nucleus size at 240 mg/kg, ig administered once daily for 7 days by hematoxylin-eosin staining based histological analysis; type: toxicity, organism-based, Liver; settings: in vivo, po, 168 h, time 7 day
# [14] = Hepatotoxicity in zymosan-induced rat arthritis model assessed as change in hepatocyte karyoplasm at 240 mg/kg, ig administered once daily for 7 days by hematoxylin-eosin staining based histological analysis; type: toxicity, organism-based, Liver; settings: in vivo, po, 168 h, time 7 day
# [15] = Hepatotoxicity in zymosan-induced rat arthritis model assessed as appearance of vacuoles in hepatocyte cytoplasm at 240 mg/kg, ig administered once daily for 7 days by hematoxylin-eosin staining based histological analysis; type: toxicity, organism-based, Liver; settings: in vivo, po, 168 h, time 7 day
# [16] = Hepatotoxicity in zymosan-induced rat arthritis model assessed as change in hepatocyte cytoplasmic appearance at 240 mg/kg, ig administered once daily for 7 days by hematoxylin-eosin staining based histological analysis; type: toxicity, organism-based, Liver; settings: in vivo, po, 168 h, time 7 day
# [17] = Hepatotoxicity in zymosan-induced rat arthritis model assessed as change in shape of liver central veins at 240 mg/kg, ig administered once daily for 7 days by hematoxylin-eosin staining based histological analysis; type: toxicity, organism-based; settings: in vivo, po, 168 h, time 7 day
# [18] = Hepatotoxicity in zymosan-induced rat arthritis model assessed as change in shape of liver portal tracts at 240 mg/kg, ig administered once daily for 7 days by hematoxylin-eosin staining based histological analysis; type: toxicity, organism-based; settings: in vivo, po, 168 h, time 7 day
structure (smiles),measurement,setting,value
CCCCCCCCCCCCCCCC(=O)Nc1ccc(OCC(=O)NCCO)cc1,Activity,Rattus norvegicus [1],Active
same,ΔTm,Rattus norvegicus [2],0.28 °C
same,Activity,Rattus norvegicus [3],Active
same,fold change (FC),Rattus norvegicus [4],3
same,inhibition in vivo at 240 mg/kg,Rattus norvegicus [5],23.1%
same,inhibition in vivo at 240 mg/kg,Rattus norvegicus [6],29.8%
same,Activity,[7],Non-toxic
same,Activity,[8],Non-toxic
same,Activity,[9],Non-toxic
same,Activity,[10],Non-toxic
same,Activity,[11],Non-toxic
same,Activity,[12],Non-toxic
same,Activity,[13],Non-toxic
same,Activity,[14],Non-toxic
same,Activity,[15],Non-toxic
same,Activity,[16],Non-toxic
same,Activity,[17],Non-toxic
same,Activity,[18],Non-toxic
